# Data reported in patent publication US11628151B2, “N,N-bis-2-mercaptoethyl isophthalamide for the treatment of neurodegenerative diseases” (EMERAMED LIMITED, priority 2014, dated 2023).
# Tests used:
# [1] = system: A549 and BEAS-2B cells; test: Particle-induced secretion of pro-inflammatory cytokines in lung epithelial cell lines (overall); format: cell-based
# Protocol: Secretion of the pro-inflammatory cytokines interleukin (IL)-6, IL-8 (as well as GM-CSF and MCP-1) into cell media in response to particle exposure was measured in A549 and BEAS-2B cells using the following method.
# Lung epithelial cells were seeded at 5×10^4 in 24-well plates. After pre-incubation with NBMI, the antioxidant compound, N-acetyl-L-cysteine (NAC), which was used as a positive control, or vehicle, for 3 hours the medium was removed.
# Fresh media containing various particles (as below) in different concentrations was in a total volume of 0.5 ml for an additional 24 hours. The supernatants were then separated from the cells by centrifugation.
# IL-8, IL-6, GM-CSF and MCP-1 were measured in the cell free fluid using the DuoSet ELISA Development kit (R&D Systems, Abingdon, UK) according to manufacturer's protocol.
# Exposure to medium only served as negative control. Each experiment was performed twice with 4 replicates.
# The effect of pre-incubation with 50 μM NBMI on particle-induced cytokine formation was tested at various concentrations of particles.
# [2] = system: primary neurons incubated with oligomeric Aβ42; test: Aβ42-induced cell death in primary neurons co-cultured with N9 cells (MTT viability); format: cell-based, mice; conditions: primary neurons incubated with oligomeric Aβ42 (200 nM), NBMI 10 nM pre-treatment 30 minutes, FIG. 1
# Protocol: (§1) Aβ42 stock was solubilized in DMSO at a concentration of 2 mM, vortexed and sonicated for 2 minutes to ensure complete dissolution. Aβ42 was diluted in 50 mM NaPi, 100 mM NaCl (pH 7.4) buffer at a concentration of 200 μM and was used within 3 hours at a final concentration of 200 nM.
# Primary cultures of cortical neurons were prepared from the cerebral cortex of mice at embryonic stage 17 (E17). The cells from each cortex were seeded separately on poly-L-ornithine (Sigma) pre-coated 6-well plates at a density of 0.25×10^6 cells/cm^2 in Neurobasal media containing B27 supplement with antioxidant, 1% penstrep and 1% glutamine.
# (§2) After 10 days' incubation, neurons were used in experiments. Where indicated, cells were pre-treated for 30 minutes with NBMI (10 nM) added directly to the cell culture medium.
# To determine cell viability, cells were washed with PBS (pH 7.4). MTT solution (3-(4,5-dimethylthiazol-2yl)-2,5-diphenyl tetrazolium bromide) was added to cells for 30 minutes at 37° C. After three washes, the insoluble formazan product was dissolved in dimethyl sulfoxide. The optical density of each culture well was then measured using a micro-plate reader (Molecular Probes, Garching, Germany) at 550 nm. The optical density of formazan formed in control cells was taken as 100% of viability. […]
# [3] = target: T1, Aβ42 (Homo sapiens, UniProt P05067); test: Aggregation state of Aβ42 in media and cell lysate of primary microglia cultures (ELISA); format: cell-based; conditions: in the media and in the cell lysate, FIG. 3
# T1 construct: Aβ42 stock was solubilized in DMSO at a concentration of 2 mM; host or cells: added to primary microglia cultures
# Protocol: Aβ42 stock was solubilized in DMSO at a concentration of 2 mM, vortexed and sonicated for 2 minutes to ensure complete dissolution. Aβ42 was diluted in 50 mM NaPi, 100 mM NaCl (pH 7.4) buffer at a concentration of 200 μM and was used within 3 hours at a final concentration of 200 nM. TNF-α secretion from primary microglia and the BV2 cell line was valued by a specific sandwich-type enzyme-linked immunoabsorbent assay (ELISA) (Duoset, R&D system) according to the manufacturer's instructions. Intracellular concentration of Aβ42 was measured using a specific sandwich-type ELISA assay (human Aβ42 kit, Invitrogen, KHB3441 and mouse/rat, IBL 27721; Immuno-Biological Laboratories Co., Ltd., Japan) according to the manufacturer's instructions. Homogenization was performed with a cold 4× volume of PBS supplemented with the 1× protease inhibitor cocktail, followed by the addition of a solution 8.2 M guanidine/82 mM Tris HCl (pH 8.0) to yield a solution with a 5M final guanidine concentration.
# [4] = system: microglia; test: Internalization of Aβ42 by microglia; format: cell-based; conditions: following Aβ42 administration; FIG. 2B
# Protocol: as §1
# (§3) TNF-α secretion from primary microglia and the BV2 cell line was valued by a specific sandwich-type enzyme-linked immunoabsorbent assay (ELISA) (Duoset, R&D system) according to the manufacturer's instructions. Intracellular concentration of Aβ42 was measured using a specific sandwich-type ELISA assay (human Aβ42 kit, Invitrogen, KHB3441 and mouse/rat, IBL 27721; Immuno-Biological Laboratories Co., Ltd., Japan) according to the manufacturer's instructions.
# N9 cells were treated with 200 nM Aβ42488 (Anaspect), and AR internalization was recorded in culture for 24 hours after AR administration using a CelIR microscope, with the image processed using CelIR software.
# [5] = system: TNF-α; test: Primary microglia activation (TNF-α release, ELISA) following Aβ42 administration; format: cell-based; conditions: FIG. 2A
# Protocol: as §1, §2, §3
# T1 sequence (P05067 672-713 limits assumed): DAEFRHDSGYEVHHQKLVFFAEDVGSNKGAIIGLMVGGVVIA
structure (smiles),measurement,setting,value
"CC(=O)N[C@@H](CS)C(=O)O [NAC, N-acetyl-L-cysteine, reference compound]",secretion of inflammatory cytokines,[1]; pre-incubation with 5 mM NAC (positive control),effective in reducing
"O=C(NCCS)c1cccc(C(=O)NCCS)c1 [NBMI, N,N-bis-2-mercaptoethyl isophthalamide]",Aβ42-induced cell death,[2],reduced
same,particle-induced secretion of pro-inflammatory cytokines,"[1]; both cell lines (A549, BEAS-2B), pre-incubation with 50 μM NBMI",can reduce
same,aggregation state of Aβ42,[3],changed
same,internalization of Aβ42 by microglia,[4],modulated
same,primary microglia activation (evaluated as TNF-α release),[5],blocked
